Holding throughout (format): cell-based, Saccharomyces cerevisiae
Assay [1] deals with RE700A e PCUP-HXT7 (ECFP). Kind of assay: Growth inhibition of ECFP by 2-DG. As to conditions: 20 h 28° C., maltose, in percent of growth of RE700A. As to the method:
(§1) (A) RE700A, ECFP and ET[PDR] were incubated 20 h at 28° C. with maltose (2% (w/v)) as the sole carbon source in the presence of the indicated 2-DG concentrations. The optical density was measured at 600 nm every 15 minutes and the integral under the growth curve was calculated. Inhibition of growth of ECFP and ET[PDR] is shown in percent of growth of RE700A. Growth of ECFP was inhibited by 39% at 0.005% (w/v) 2-DG, by 78% at 0.01% (w/v) 2-DG, by 91% at 0.03% (w/v) 2-DG and by 93% at 0.05% (w/v) 2-DG. Growth of ET[PDR] was inhibited by 52% at 0.005% (w/v) 2-DG, by 87% at 0.01% (w/v) 2-DG, by 94% at 0.03% (w/v) 2-DG and by 96% at 0.05% (w/v) 2-DG.
(§2) Strain growth: The growth of the strains in liquid medium was determined by measuring the optical density at 600 nm. To obtain growth curves, measurements were performed every 15 min. Alternatively, start and endpoint (after 12-16 h) measurements were carried out.

For assay [2], the system named is RE700A Δpdr3 tok1::PPDR5long-HXT7. Briefly: Growth of RE700A Δpdr3 tok1::PPDR5long-HXT7 in the presence of 2-DG. As to conditions: RE700A Δpdr3 tok1::PPDR5long-HXT7, 20 h 28° C. As to the method:
(§3) (B) Relative growth of RE700A tok1::PPDR5long-HXT7, RE700A Δpdr1 tok1::PPDR5long-HXT7, RE700A Δpdr3 tok1::PPDR5long-HXT7 and RE700A Δpdr1,3 tok1::PPDR5long-HXT7 in the presence of 2-DG. Cells were incubated for 20 h at 28° C. with 2-DG at different concentrations. […] The standard error of the mean (n=5) is indicated.

Assay [3] deals with RE700A e PPDR5-HXT7 (ET[PDR]). Kind of assay: Growth inhibition of ET[PDR] by 2-DG. The following applies: 20 h 28° C., maltose, in percent of growth of RE700A. As to the method: as §1, §2
In assay [4] the test system is RE700A tok1::PPDR5long-HXT7. Kind of assay: Growth of RE700A tok1::PPDR5long-HXT7 in the presence of 2-DG. The following applies: RE700A tok1::PPDR5long-HXT7, liquid media, 20 h 28° C. As to the method: as §3
Assay [5] concerns RE700A e PCDR1-HXT7 (ET[CDR1]). Briefly: Growth inhibition of ET[CDR1] by 2-DG. As to conditions: liquid media, 20 h 28° C., compared to growth in the absence of 2-DG. The procedure: FIG. 6: Growth inhibition of RE700A, ET[CDR1] and ET[CDR2] in the presence of increasing 2-DG concentrations after 20 h incubation at 28° C. for in liquid medium. RE700A, ET[CDR1] and ET[CDR2] were incubated 20 h at 28° C. with maltose (2% (w/v)) as the sole carbon source in the presence of increasing 2-DG concentrations in liquid medium. The optical density was measured at 600 nm semi-continuously every 15 minutes and the integral under the growth curve was calculated. Inhibition of growth is shown in percent compared to growth in the absence of 2-DG. Growth of ET[CDR1] was inhibited by 92% at a 2-DG concentration in liquid media of 0.05% (w/v), by 94% at a 2-DG concentration in liquid media of 0.075% (w/v), by 93% at a 2-DG concentration in liquid media of 0.1% (w/v) and by 95% at a 2-DG concentration of 0.2% (w/v). Growth of ET[CDR2] was inhibited by 50% at a 2-DG concentration in liquid media of 0.05% (w/v), by 70% at a 2-DG concentration in liquid media of 0.075% (w/v), by 70% at a 2-DG concentration in liquid media of 0.1% (w/v) and by 84% at a 2-DG concentration of 0.2% (w/v).
(1) Episomal screening system for inhibitors of PCDR1: S. cerevisiae strain RE700A was transformed with plasmids pY-PCDR1-HXT7 and pY-PCDR1-GFP yielding strains ET[CDR1] and CQ[CDR1] (for details see Examples 1 and 2, for the complete genotype refer to Table 1). The inhibition of growth of ET[CDR1] by 2-DG was tested. The growth of this strain was inhibited to more than 90% at a 2-DG concentration of 0.05% (w/v) (FIG. 6). To screen for inhibitors of the PCDR1, the test strain ET[CDR1] can be incubated in selective YNB medium with 2% (w/v) maltose as the carbon source and 0.05% (w/v) 2-DG. Under these non-permissive conditions the growth of the test strain ET[CDR1] was inhibited when PCDR1 was active (FIG. 6).

Broadly, the Inhibition of growth is the share of the control response that was lost under treatment. The low end stands for a response near the control, the high end for a response far below the control.

Each structure is given as a SMILES string.

Turning to `O=CC[C@@H](O)[C@H](O)[C@H](O)CO` [2-DG, 2-deoxy-glucose], the Inhibition of growth in assay [1] (0.005% (w/v) 2-DG) is listed as 39%; in assay [1] (0.01% (w/v) 2-DG), 78%; in assay [1] (0.03% (w/v) 2-DG), 91%; in assay [1] (0.05% (w/v) 2-DG), 93%; in assay [3] (0.005% (w/v) 2-DG), 52%; in assay [3] (0.01% (w/v) 2-DG) it was 87%. The Inhibition of growth in assay [3] (0.03% (w/v) 2-DG) worked out at 94%; in assay [3] (0.05% (w/v) 2-DG), 96%; in assay [5] (0.075% (w/v) 2-DG) it was 94%; in assay [5] (0.1% (w/v) 2-DG), 93%; in assay [5] (0.2% (w/v) 2-DG), 95%. Moreover, the “2-DG concentration for 50% growth inhibition” value in assay [2] is recorded as 0.029 % (w/v); in assay [4], 0,025 % (w/v).
